Laboratory results from ChEMBL document CHEMBL1153874, “Synthesis and biological evaluation of cytotoxic properties of stilbene-based resveratrol analogs” (Eur J Med Chem, 2009).
Converted amounts (≈) assume the structure as drawn.

Experiments:
MDA-MB-435 = experiment: cells; settings: Homo sapiens, MDA-MB-435, 72 h
Description: Cytotoxicity against human MDA-MB-435 cells after 72 hrs by MTT assay

K562 = experiment: Cytotoxicity against human K562 cells after 72 hrs by MTT assay; format: functional, cell-based; settings: K562, 72 h
CCRF-CEM = experiment: Cytotoxicity against human CEM cells after 72 hrs by MTT assay; format: cell-based
B16 = experiment: Cytotoxicity against mouse B16 cells after 72 hrs by MTT assay; format: functional, cell-based; settings: B16, 72 h
[1] = Antimitotic activity in Lytechinus variegatus embryo assessed as inhibition of blastula formation at 417 uM relative to control; format: functional
[2] = Toxicity in mouse erythrocytes assessed as hemolysis at 1.5 to 200 ug/mL after 30 min by spectrophotometry; format: cell-based; settings: erythrocyte, 0.5 h
PC-3 = experiment: cells; settings: Homo sapiens, PC-3, 72 h
Description: Cytotoxicity against human PC3 cells after 72 hrs by MTT assay

Lytechinus variegatus [3] = experiment: Antimitotic activity in Lytechinus variegatus embryo assessed as inhibition of third cleavage at 41.7 uM relative to control; format: functional
[4] = Antimitotic activity in Lytechinus variegatus embryo assessed as inhibition of blastula formation at 41.7 uM relative to control; format: functional
Lytechinus variegatus [5] = experiment: Antimitotic activity in Lytechinus variegatus embryo assessed as inhibition of first cleavage at 41.7 uM relative to control; format: functional
HCT-8 = experiment: Cytotoxicity against human HCT8 cells after 72 hrs by MTT assay; format: functional, cell-based; settings: HCT-8, 72 h
Lytechinus variegatus [6] = experiment: Antimitotic activity in Lytechinus variegatus embryo assessed as inhibition of first cleavage at 417 uM relative to control; format: functional
HL-60 = experiment: Cytotoxicity against human HL60 cells after 72 hrs by MTT assay; format: functional, cell-based; settings: HL-60, 72 h
Lytechinus variegatus [7] = experiment: Antimitotic activity in Lytechinus variegatus embryo assessed as inhibition of third cleavage at 417 uM relative to control; format: functional
Lytechinus variegatus [8] = experiment: Antimitotic activity in Lytechinus variegatus embryo assessed as inhibition of third cleavage at 37 uM relative to control; format: functional
Lytechinus variegatus [9] = experiment: Antimitotic activity in Lytechinus variegatus embryo assessed as inhibition of first cleavage at 370 uM relative to control; format: functional
Lytechinus variegatus [10] = experiment: Antimitotic activity in Lytechinus variegatus embryo assessed as inhibition of third cleavage at 370 uM relative to control; format: functional
Lytechinus variegatus [11] = experiment: Antimitotic activity in Lytechinus variegatus embryo assessed as inhibition of first cleavage at 37 uM relative to control; format: functional
[12] = Antimitotic activity in Lytechinus variegatus embryo assessed as inhibition of blastula formation at 37 uM relative to control; format: functional
[13] = Antimitotic activity in Lytechinus variegatus embryo assessed as inhibition of blastula formation at 370 uM relative to control; format: functional
Lytechinus variegatus [14] = experiment: Antimitotic activity in Lytechinus variegatus embryo assessed as inhibition of third cleavage at 43.8 uM relative to control; format: functional
[15] = Antimitotic activity in Lytechinus variegatus embryo assessed as inhibition of blastula formation at 43.8 uM relative to control; format: functional
Lytechinus variegatus [16] = experiment: Antimitotic activity in Lytechinus variegatus embryo assessed as inhibition of first cleavage at 43.8 uM relative to control; format: functional
Lytechinus variegatus [17] = experiment: Antimitotic activity in Lytechinus variegatus embryo assessed as inhibition of first cleavage at 352 uM relative to control; format: functional
[18] = Antimitotic activity in Lytechinus variegatus embryo assessed as inhibition of blastula formation at 352 uM relative to control; format: functional
Lytechinus variegatus [19] = experiment: Antimitotic activity in Lytechinus variegatus embryo assessed as inhibition of third cleavage at 35.2 uM relative to control; format: functional
Lytechinus variegatus [20] = experiment: Antimitotic activity in Lytechinus variegatus embryo assessed as inhibition of first cleavage at 35.2 uM relative to control; format: functional
[21] = Antimitotic activity in Lytechinus variegatus embryo assessed as inhibition of blastula formation at 35.2 uM relative to control; format: functional
Lytechinus variegatus [22] = experiment: Antimitotic activity in Lytechinus variegatus embryo assessed as inhibition of third cleavage at 352 uM relative to control; format: functional
Lytechinus variegatus [23] = experiment: Antimitotic activity in Lytechinus variegatus embryo assessed as inhibition of first cleavage at 18.4 uM relative to control; format: functional
Lytechinus variegatus [24] = experiment: Antimitotic activity in Lytechinus variegatus embryo assessed as inhibition of third cleavage at 18.4 uM relative to control; format: functional
Lytechinus variegatus [25] = experiment: Antimitotic activity in Lytechinus variegatus embryo assessed as inhibition of third cleavage at 184 uM relative to control; format: functional
[26] = Antimitotic activity in Lytechinus variegatus embryo assessed as inhibition of blastula formation at 18.4 uM relative to control; format: functional
Lytechinus variegatus [27] = experiment: Antimitotic activity in Lytechinus variegatus embryo assessed as inhibition of first cleavage at 184 uM relative to control; format: functional
[28] = Antimitotic activity in Lytechinus variegatus embryo assessed as inhibition of blastula formation at 184 uM relative to control; format: functional
[29] = Antimitotic activity in Lytechinus variegatus embryo assessed as inhibition of blastula formation at 320 uM relative to control; format: functional
Lytechinus variegatus [30] = experiment: Antimitotic activity in Lytechinus variegatus embryo assessed as inhibition of first cleavage at 32 uM relative to control; format: functional
Lytechinus variegatus [31] = experiment: Antimitotic activity in Lytechinus variegatus embryo assessed as inhibition of third cleavage at 32 uM relative to control; format: functional
Lytechinus variegatus [32] = experiment: Antimitotic activity in Lytechinus variegatus embryo assessed as inhibition of first cleavage at 320 uM relative to control; format: functional
[33] = Antimitotic activity in Lytechinus variegatus embryo assessed as inhibition of blastula formation at 32 uM relative to control; format: functional
Lytechinus variegatus [34] = experiment: Antimitotic activity in Lytechinus variegatus embryo assessed as inhibition of third cleavage at 320 uM relative to control; format: functional
Lytechinus variegatus [35] = experiment: Antimitotic activity in Lytechinus variegatus embryo assessed as inhibition of first cleavage at 39.4 uM relative to control; format: functional
[36] = Antimitotic activity in Lytechinus variegatus embryo assessed as inhibition of blastula formation at 394 uM relative to control; format: functional
Lytechinus variegatus [37] = experiment: Antimitotic activity in Lytechinus variegatus embryo assessed as inhibition of first cleavage at 394 uM relative to control; format: functional
[38] = Antimitotic activity in Lytechinus variegatus embryo assessed as inhibition of blastula formation at 39.4 uM relative to control; format: functional
Lytechinus variegatus [39] = experiment: Antimitotic activity in Lytechinus variegatus embryo assessed as inhibition of third cleavage at 394 uM relative to control; format: functional
Lytechinus variegatus [40] = experiment: Antimitotic activity in Lytechinus variegatus embryo assessed as inhibition of third cleavage at 39.4 uM relative to control; format: functional

COc1ccc(/C=C/c2ccccc2)cc1OC
IC50 (MDA-MB-435): > 25 mg/L | IC50 (K562): > 25 mg/L | IC50 (CCRF-CEM): > 25 mg/L | IC50 (B16): > 25 mg/L | inhibition at 417 µM [1]: 100% | Activity [2]: Non-toxic | IC50 (PC-3): > 25 mg/L | inhibition (Lytechinus variegatus [3]): 6% | inhibition at 41.7 µM [4]: 83% | inhibition (Lytechinus variegatus [5]): 0% | IC50 (HCT-8): > 25 mg/L | inhibition (Lytechinus variegatus [6]): 0% | IC50 (HL-60): > 25 mg/L | inhibition (Lytechinus variegatus [7]): 100%

COc1cc(/C=C(/C(=O)O)c2ccccc2)ccc1O
IC50 (MDA-MB-435): 17.8 mg/L (≈ 65.7 µM) | inhibition (Lytechinus variegatus [8]): 7.6% | IC50 (K562): > 25 mg/L | inhibition (Lytechinus variegatus [9]): 0% | IC50 (CCRF-CEM): > 25 mg/L | IC50 (B16): > 25 mg/L | inhibition (Lytechinus variegatus [10]): 7.3% | Activity [2]: Non-toxic | IC50 (PC-3): > 25 mg/L | inhibition (Lytechinus variegatus [11]): 0% | IC50 (HCT-8): > 25 mg/L | inhibition at 37 µM [12]: 5.3% | inhibition at 370 µM [13]: 99.7% | IC50 (HL-60): > 25 mg/L

Oc1ccc(/C=C/c2cc(O)cc(O)c2)cc1 [RESVERATROL]
IC50 (MDA-MB-435): 13.8 mg/L (≈ 60.5 µM) | IC50 (K562): 9.62 mg/L (≈ 42.1 µM) | IC50 (CCRF-CEM): 5.91 mg/L (≈ 25.9 µM) | inhibition (Lytechinus variegatus [14]): 100% | IC50 (B16): 14.3 mg/L (≈ 62.9 µM) | Activity [2]: Non-toxic | IC50 (PC-3): 3.51 mg/L (≈ 15.4 µM) | inhibition at 43.8 µM [15]: 100% | IC50 (HCT-8): 5.82 mg/L (≈ 25.5 µM) | inhibition (Lytechinus variegatus [16]): 97.9% | IC50 (HL-60): 2.45 mg/L (≈ 10.7 µM)

COc1ccc(/C=C(/C(=O)O)c2ccccc2)cc1OC
inhibition (Lytechinus variegatus [17]): 3% | IC50 (MDA-MB-435): > 25 mg/L | inhibition at 352 µM [18]: 0.7% | IC50 (K562): > 25 mg/L | IC50 (CCRF-CEM): > 25 mg/L | IC50 (B16): > 25 mg/L | Activity [2]: Non-toxic | IC50 (PC-3): > 25 mg/L | inhibition (Lytechinus variegatus [19]): 0% | inhibition (Lytechinus variegatus [20]): 4.3% | IC50 (HCT-8): > 25 mg/L | inhibition at 35.2 µM [21]: 0.7% | inhibition (Lytechinus variegatus [22]): 0% | IC50 (HL-60): > 25 mg/L

COc1cccc2c1C(=O)c1c(O)c3c(c(O)c1C2=O)C[C@@](O)(C(=O)CO)C[C@@H]3O[C@H]1C[C@H](N)[C@H](O)[C@H](C)O1 [DOXORUBICIN]
IC50 (K562): 0.14 mg/L (≈ 0.258 µM) | IC50 (CCRF-CEM): 0.02 mg/L (≈ 0.0368 µM) | IC50 (PC-3): 0.45 mg/L (≈ 0.828 µM) | inhibition (Lytechinus variegatus [23]): 100% | inhibition (Lytechinus variegatus [24]): 100% | inhibition (Lytechinus variegatus [25]): 100% | inhibition at 18.4 µM [26]: 100% | inhibition (Lytechinus variegatus [27]): 100% | inhibition at 184 µM [28]: 100%

COc1cc(/C=C(/C(=O)O)c2ccccc2)ccc1OC(C)=O
IC50 (MDA-MB-435): > 25 mg/L | IC50 (K562): > 25 mg/L | IC50 (CCRF-CEM): > 25 mg/L | IC50 (B16): > 25 mg/L | inhibition at 320 µM [29]: 100% | Activity [2]: Non-toxic | IC50 (PC-3): > 25 mg/L | inhibition (Lytechinus variegatus [30]): 0% | inhibition (Lytechinus variegatus [31]): 2.3% | IC50 (HCT-8): > 25 mg/L | inhibition (Lytechinus variegatus [32]): 100% | IC50 (HL-60): > 25 mg/L | inhibition at 32 µM [33]: 5% | inhibition (Lytechinus variegatus [34]): 100%

O=C(O)/C(=C/c1ccccc1O)c1ccccc1
IC50 (MDA-MB-435): > 25 mg/L | IC50 (K562): > 25 mg/L | IC50 (CCRF-CEM): > 25 mg/L | IC50 (B16): > 25 mg/L | inhibition at 417 µM [1]: 95.4% | Activity [2]: Non-toxic | IC50 (PC-3): > 25 mg/L | inhibition (Lytechinus variegatus [3]): 96.3% | inhibition at 41.7 µM [4]: 97.3% | inhibition (Lytechinus variegatus [5]): 12.3% | IC50 (HCT-8): > 25 mg/L | inhibition (Lytechinus variegatus [6]): 44.5% | IC50 (HL-60): > 25 mg/L | inhibition (Lytechinus variegatus [7]): 100%

COc1ccc(/C=C(/C(=O)O)c2ccccc2)cc1
IC50 (MDA-MB-435): > 25 mg/L | inhibition (Lytechinus variegatus [35]): 0% | inhibition at 394 µM [36]: 68.7% | IC50 (K562): > 25 mg/L | IC50 (CCRF-CEM): > 25 mg/L | IC50 (B16): > 25 mg/L | Activity [2]: Non-toxic | IC50 (PC-3): > 25 mg/L | IC50 (HCT-8): > 25 mg/L | inhibition (Lytechinus variegatus [37]): 0% | inhibition at 39.4 µM [38]: 0.3% | inhibition (Lytechinus variegatus [39]): 9.3% | inhibition (Lytechinus variegatus [40]): 3.6% | IC50 (HL-60): > 25 mg/L

COc1ccc(/C=C\c2ccccc2)cc1OC
IC50 (MDA-MB-435): 6.08 mg/L (≈ 25.3 µM) | IC50 (K562): 6.38 mg/L (≈ 26.5 µM) | IC50 (CCRF-CEM): > 25 mg/L | IC50 (B16): > 25 mg/L | inhibition at 417 µM [1]: 100% | Activity [2]: Non-toxic | IC50 (PC-3): > 25 mg/L | inhibition (Lytechinus variegatus [3]): 100% | inhibition at 41.7 µM [4]: 100% | inhibition (Lytechinus variegatus [5]): 0% | IC50 (HCT-8): > 25 mg/L | inhibition (Lytechinus variegatus [6]): 100% | IC50 (HL-60): 6.42 mg/L (≈ 26.7 µM) | inhibition (Lytechinus variegatus [7]): 100%
